From patent publication US9771406B2, “Peptidic dual GLP-1/glucagon receptor agonists derived from exendin-4” (priority 2014, dated 2017) come the findings set out here.

Usually EC50 stands for the concentration at which the effect is half-maximal. The term solubility denotes how much of the substance goes into solution per volume. A low value points to a poorly soluble substance. In general, Cmax refers to the maximum level reached in the sampled fluid or tissue. The half-life is the time needed for the level to fall by half in the phase considered.

For one data set, the target named is T1, human glucagon receptor (Homo sapiens, UniProt P47871).
T1 construct: expressed in transfected cells; host or cells: HEK-293
Kind of data set: cAMP response of HEK-293 cells stably expressing human glucagon receptor (HTRF). Type of data set: cell-based. Particulars: Table 6; cAMP formation; read-out: EC50 hGlucagon-R. On the procedure:
(§1) cAMP content of cells was determined using a kit from Cisbio Corp. (cat. no. 62AM4PEC) based on HTRF (Homogenous Time Resolved Fluorescence). For preparation, cells were split into T175 culture flasks and grown overnight to near confluency in medium (DMEM/10% FBS). Medium was then removed and cells washed with PBS lacking calcium and magnesium, followed by proteinase treatment with accutase (Sigma-Aldrich cat. no. A6964). Detached cells were washed and resuspended in assay buffer (1×HBSS; 20 mM HEPES, 0.1% BSA, 2 mM IBMX) and cellular density determined. They were then diluted to 400000 cells/ml and 25 μl-aliquots dispensed into the wells of 96-well plates. For measurement, 25 μl of test compound in assay buffer was added to the wells, followed by incubation for 30 minutes at room temperature.
(§2) Potencies of peptidic compounds at the GLP-1, glucagon and GIP receptors were determined by exposing cells expressing human glucagon receptor (hGCG R), human GIP (hGIP R) and human GLP-1 receptor (hGLP-1 R) to the listed compounds at increasing concentrations and measuring the formed cAMP as described in Methods.
For orientation: In TR-FRET formats the signal depends on donor and acceptor labels being close together.

A further data set has as its target T2, human GIP receptor (Homo sapiens, UniProt P48546).
T2 construct: expressed in transfected cells; host or cells: HEK-293
T2 sequence (P48546 22-466): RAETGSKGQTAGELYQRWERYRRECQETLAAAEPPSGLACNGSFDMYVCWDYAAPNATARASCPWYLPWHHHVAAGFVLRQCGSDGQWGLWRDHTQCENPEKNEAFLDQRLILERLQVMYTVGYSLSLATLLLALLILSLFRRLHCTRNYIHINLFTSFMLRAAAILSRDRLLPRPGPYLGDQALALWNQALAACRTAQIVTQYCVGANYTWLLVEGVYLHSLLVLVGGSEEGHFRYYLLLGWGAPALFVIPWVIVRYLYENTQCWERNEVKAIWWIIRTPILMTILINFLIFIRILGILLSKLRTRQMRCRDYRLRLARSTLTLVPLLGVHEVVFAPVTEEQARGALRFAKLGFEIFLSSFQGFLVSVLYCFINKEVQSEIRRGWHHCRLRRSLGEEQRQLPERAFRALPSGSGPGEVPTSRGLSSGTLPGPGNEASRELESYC
Kind of data set: cAMP response of HEK-293 cells stably expressing human GIP receptor (HTRF). Format: cell-based. Particulars: Table 6; cAMP formation; read-out: EC50 hGIP-R. As for the experimental part:
as §1, §2

The nature of data set [1]: Solubility testing of exendin-4 derivatives (HPLC-UV of supernatant). Format: physicochemical. As for the experimental part: Prior to the testing of solubility and stability of a peptide batch, its purity (HPLC-UV) was determined. […] Therefore, solutions from solid samples were prepared in different buffer systems with a concentration of 10 mg/mL compound based on the previously determined % purity. HPLC-UV was performed after 2 h of gentle agitation from the supernatant, which was obtained by 20 min of centrifugation at 4500 rpm. […] This analysis also served as starting point (t0) for the stability testing.

The nature of data set [2]: Stability testing in solution, 7 days at 40° C. (% remaining peptide, HPLC-UV). Type of data set: physicochemical. Particulars: buffer, 168 h. On the procedure: After that time course, the sample was centrifuged for 20 min at 4500 rpm and 0.2 μL of the supernatant were analysed with HPLC-UV.
For determination of the amount of the remaining peptide, the peak areas of the target compound at t0 and t7 were compared, resulting in “% remaining peptide”, following the equation % remaining peptide=[(peak area peptide t7)×100]/peak area peptide t0.
The stability is expressed as “% remaining peptide”.

A short description of data set [3]: Pharmacokinetic testing in mice (plasma LC/MS). Particulars: mouse, in vivo, sc, 1 mg/kg. On the procedure:
Mice are dosed 1 mg/kg subcutaneously (s.c.). The mice are sacrificed and blood samples are collected after 0.25, 0.5, 1, 2, 4, 8, 16 and 24 hours post application. Plasma samples are analyzed after protein precipitation via liquid chromatography mass spectrometry (LC/MS). PK parameters and half-life were calculated using WinonLin Version 5.2.1 (non-compartment model).
Pharmacokinetic profiles were determined as described in Methods.

For the next data set, the target named is T3, human GLP-1 receptor (Homo sapiens, UniProt P43220).
T3 construct: expressed in transfected cells; host or cells: HEK-293
Nature of the data set: cAMP response of HEK-293 cells stably expressing human GLP-1 receptor (HTRF). Format: cell-based. Particulars: Table 6; cAMP formation; read-out: EC50 hGLP-1R. On the procedure:
as §1, §2

T1 sequence (P47871 26-477): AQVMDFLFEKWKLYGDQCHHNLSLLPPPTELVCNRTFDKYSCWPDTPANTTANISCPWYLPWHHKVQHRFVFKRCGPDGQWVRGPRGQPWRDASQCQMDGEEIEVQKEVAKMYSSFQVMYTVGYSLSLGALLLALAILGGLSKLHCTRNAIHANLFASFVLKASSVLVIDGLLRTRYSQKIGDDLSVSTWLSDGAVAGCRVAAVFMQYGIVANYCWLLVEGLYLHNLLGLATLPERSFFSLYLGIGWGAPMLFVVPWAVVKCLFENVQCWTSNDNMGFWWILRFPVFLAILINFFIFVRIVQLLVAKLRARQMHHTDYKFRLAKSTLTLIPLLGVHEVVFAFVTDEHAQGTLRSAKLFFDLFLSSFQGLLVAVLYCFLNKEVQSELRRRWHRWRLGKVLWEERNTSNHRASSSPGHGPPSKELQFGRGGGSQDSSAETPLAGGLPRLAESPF
T3 sequence (P43220 24-463): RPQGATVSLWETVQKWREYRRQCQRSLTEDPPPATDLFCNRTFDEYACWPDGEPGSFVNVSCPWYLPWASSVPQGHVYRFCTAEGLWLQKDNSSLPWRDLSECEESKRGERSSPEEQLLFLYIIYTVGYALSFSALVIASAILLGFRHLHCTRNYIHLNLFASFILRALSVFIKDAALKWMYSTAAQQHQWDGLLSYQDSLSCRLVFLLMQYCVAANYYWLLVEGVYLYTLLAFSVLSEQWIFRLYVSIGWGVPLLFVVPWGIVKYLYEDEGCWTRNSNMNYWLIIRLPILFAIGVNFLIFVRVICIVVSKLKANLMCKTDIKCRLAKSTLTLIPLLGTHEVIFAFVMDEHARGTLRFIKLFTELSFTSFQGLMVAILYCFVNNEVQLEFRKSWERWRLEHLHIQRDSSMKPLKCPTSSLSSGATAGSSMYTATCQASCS

With `CCCCCCCCCCCCCCCC(=O)N[C@@H](CCC(=O)N[C@@H](CCC(=O)NCCCC[C@H](NC(=O)[C@H](CCC(N)=O)NC(=O)[C@H](CCCCN)NC(=O)[C@H](CO)NC(=O)[C@H](CC(C)C)NC(=O)[C@H](CC(=O)O)NC(=O)[C@H](CO)NC(=O)[C@@H](NC(=O)[C@H](Cc1ccccc1)NC(=O)[C@@H](NC(=O)CNC(=O)[C@H](Cc1c[nH]cn1)NC(=O)C(C)(C)NC(=O)[C@@H](N)Cc1c[nH]cn1)[C@@H](C)O)[C@@H](C)O)C(=O)N[C@@H](CCC(=O)O)C(=O)N[C@@H](CCC(=O)O)C(=O)N[C@@H](CCC(=O)O)C(=O)N[C@@H](C)C(=O)N[C@H](C(=O)N[C@@H](CCCNC(=N)N)C(=O)N[C@@H](CC(C)C)C(=O)N[C@@H](Cc1ccccc1)C(=O)N[C@H](C(=O)N[C@@H](CCC(=O)O)C(=O)N[C@@H](Cc1c[nH]c2ccccc12)C(=O)N[C@@H](CC(C)C)C(=O)N[C@@H](CCCCN)C(=O)N[C@@H](C)C(=O)NCC(=O)NCC(=O)N1CCC[C@H]1C(=O)N[C@@H](CO)C(=O)N[C@@H](CO)C(=O)NCC(=O)N[C@@H](C)C(=O)N1CCC[C@H]1C(=O)N1CCC[C@H]1C(=O)N1CCC[C@H]1C(=O)N[C@@H](CO)C(N)=O)[C@@H](C)CC)C(C)C)C(=O)O)C(=O)O` [compound 11], the EC50 at human glucagon receptor was 8.9 pM. Further, the EC50 on human GIP receptor was determined as 7.9 pM. This compound also registered a solubility at 2 h in data set [1] (pH 4.5) greater than 5000 µg/mL. The solubility at 2 h in data set [1] (pH 7.4) is greater than 5000 µg/mL. For the same compound, in data set [2], the “Stability (pH 4.5), % remaining peptide” value is 97.5% and the “Stability (pH 7.4), % remaining peptide” value came out at 95.8%. In data set [3], this compound showed a Cmax of 3510 ng/mL and a half-life of 3.3 h.
Turning to `CCCCCCCCCCCCCCCC(=O)N[C@@H](CCC(=O)NCCCC[C@H](NC(=O)[C@H](CCC(N)=O)NC(=O)[C@H](CCCCN)NC(=O)[C@H](CO)NC(=O)[C@H](CC(C)C)NC(=O)[C@H](CC(=O)O)NC(=O)[C@H](CO)NC(=O)[C@@H](NC(=O)[C@H](Cc1ccccc1)NC(=O)[C@@H](NC(=O)CNC(=O)[C@H](Cc1c[nH]cn1)NC(=O)C(C)(C)NC(=O)[C@@H](N)Cc1c[nH]cn1)[C@@H](C)O)[C@@H](C)O)C(=O)N[C@@H](CCC(=O)O)C(=O)N[C@@H](CCC(=O)O)C(=O)N[C@@H](CCC(=O)O)C(=O)N[C@@H](C)C(=O)N[C@H](C(=O)N[C@@H](CCCNC(=N)N)C(=O)N[C@@H](CC(C)C)C(=O)N[C@@H](Cc1ccccc1)C(=O)N[C@H](C(=O)N[C@@H](CCC(=O)O)C(=O)N[C@@H](Cc1c[nH]c2ccccc12)C(=O)N[C@@H](CC(C)C)C(=O)N[C@@H](CCCCN)C(=O)N[C@@H](C)C(=O)NCC(=O)NCC(=O)N1CCC[C@H]1C(=O)N[C@@H](CO)C(=O)N[C@@H](CO)C(=O)NCC(=O)N[C@@H](C)C(=O)N1CCC[C@H]1C(=O)N1CCC[C@H]1C(=O)N1CCC[C@H]1C(=O)N[C@@H](CO)C(N)=O)[C@@H](C)CC)C(C)C)C(=O)O` [compound 12], the EC50 at human GLP-1 receptor was found to be 3.3 pM; at human glucagon receptor, 12.8 pM; on human GIP receptor it was 8.8 pM. Moreover, the solubility at 2 h in data set [1] (pH 4.5) and in data set [1] (pH 7.4) was greater than 5000 µg/mL each time. Further, the “Stability (pH 4.5), % remaining peptide” value in data set [2] stood at 96.7%. Further, in data set [2], the “Stability (pH 7.4), % remaining peptide” value turned out to be 92.0%.
As to `CCCCCCCCCCCCCCCC(=O)N[C@@H](CCC(=O)NCCCC[C@H](NC(=O)[C@H](CCC(N)=O)NC(=O)[C@H](CCCCN)NC(=O)[C@H](CO)NC(=O)[C@H](CC(C)C)NC(=O)[C@H](CC(=O)O)NC(=O)[C@H](CO)NC(=O)[C@@H](NC(=O)[C@H](Cc1ccccc1)NC(=O)[C@@H](NC(=O)CNC(=O)[C@H](Cc1c[nH]cn1)NC(=O)[C@@H](CO)NC(=O)[C@@H](N)Cc1c[nH]cn1)[C@@H](C)O)[C@@H](C)O)C(=O)N[C@@H](CCC(=O)O)C(=O)N[C@@H](CCC(=O)O)C(=O)N[C@@H](CCC(=O)O)C(=O)N[C@@H](C)C(=O)N[C@H](C(=O)N[C@@H](CCCNC(=N)N)C(=O)N[C@@H](CC(C)C)C(=O)N[C@@H](Cc1ccccc1)C(=O)N[C@H](C(=O)N[C@@H](CCC(=O)O)C(=O)N[C@@H](Cc1c[nH]c2ccccc12)C(=O)N[C@@H](CC(C)C)C(=O)N[C@@H](CCCCN)C(=O)N[C@@H](C)C(=O)NCC(=O)NCC(=O)N1CCC[C@H]1C(=O)N[C@@H](CO)C(=O)N[C@@H](CO)C(=O)NCC(=O)N[C@@H](C)C(=O)N1CCC[C@H]1C(=O)N1CCC[C@H]1C(=O)N1CCC[C@H]1C(=O)N[C@@H](CO)C(N)=O)[C@@H](C)CC)C(C)C)C(=O)O` [compound 14], the EC50 on human GLP-1 receptor came to 4.1 pM; at human glucagon receptor, 58.4 pM; on human GIP receptor it was 437 pM.
